Measured values published in patent US8268884B2, “Derivatives of substituted tartaric acid and usage for preparing beta-secretase inhibitors” (Institute of Pharmacology and Toxicology Academy of …, priority 2006, dated 2012).

Assays:
[1] = target: BACE1 (Homo sapiens, UniProt P56817); assay: Determination of BACE1-inhibiting activity (fluorescence substrate cleavage); format: biochemical; details: compound 100 μM; BACE1 1.0 U/ml; substrate 750 nM Rh-EVNLDAEFK-Quencher; sodium acetate buffer pH 4.5; 25° C., 60 minutes; read-out: Inhibitory rate (%)
Procedure: Determination of BACE1-Inhibiting Activity
A sodium acetate analytical buffer solution ([…], pH 4.5) containing BACE1 (1.0 U/ml), a substrate of BACE1 (750 nM Rh-EVNLDAEFK-Quencher), a compound of the present invention (100 μM) was incubated at 25° C. for 60 minutes. The fluorescence intensity was determined by using a TECANGENios fluorimeter with a slit width of 10 nm, an excitation wavelength of 535 nm and an emission wavelength of 585 nm. Inhibitory rate(%)={1−[(S−S0)/(C−C0)]}*100%
C: the fluorescence intensity of the control (BACE1, substrate and analytical buffer solution) as determined after incubating for 60 minutes.
C0: the fluorescence intensity of the control (BACE1, substrate and analytical buffer solution) as determined after incubating for 0 minute.
S: the fluorescence intensity of the sample (BACE1, substrate, compound of the present invention and analytical buffer solution) as determined after incubating for 60 minutes.
S0: the fluorescence intensity of the sample (BACE1, substrate, compound of the present invention and analytical buffer solution) as determined after incubating for 0 minute.

BACE1, sequence (P56817 46-501): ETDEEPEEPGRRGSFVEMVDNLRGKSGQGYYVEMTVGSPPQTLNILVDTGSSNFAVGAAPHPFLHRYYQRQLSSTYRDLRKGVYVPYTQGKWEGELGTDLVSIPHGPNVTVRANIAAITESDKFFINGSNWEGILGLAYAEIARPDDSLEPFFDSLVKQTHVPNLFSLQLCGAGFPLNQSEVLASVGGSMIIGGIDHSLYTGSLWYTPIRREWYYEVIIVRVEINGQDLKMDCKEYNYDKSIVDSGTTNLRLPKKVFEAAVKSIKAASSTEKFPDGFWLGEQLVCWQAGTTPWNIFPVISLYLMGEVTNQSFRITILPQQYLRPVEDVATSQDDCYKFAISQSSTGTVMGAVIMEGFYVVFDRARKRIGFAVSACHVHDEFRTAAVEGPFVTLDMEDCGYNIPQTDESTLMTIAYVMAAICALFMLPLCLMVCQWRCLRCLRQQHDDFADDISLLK

| Structure (SMILES) | inhibition at 100 µM [1] [%] | melting point [°C] |
| --- | --- | --- |
| COC(=O)C1CCC(CNC(=O)[C@H](O)[C@@H](O)C(=O)Nc2ccc3ccccc3c2)CC1 (stereo partly drawn) [Example 18, methyl L-(2R,3R)-4-{[2,3-dihydroxy-3-(naphthyl-2-carbamoyl)-propionylamino]methyl}-cyclohexanecarboxylate] | 22.3 | – |
| COC(=O)c1cc(NC(=O)[C@H](O)[C@@H](O)C(=O)NCc2ccccc2)cc(C(=O)OC)c1 [Example 16, dimethyl L-(2R,3R)-5-(3-benzylcarbamoyl-2,3-dihydroxy-propionylamino)-isophthalate] | 26.5 | – |
| O=C(O)C1CCC(CNC(=O)[C@H](O)[C@@H](O)C(=O)NCc2ccccc2)CC1 (stereo partly drawn) [Example 15, L-(2R,3R)-4-[(3-benzylcarbamoyl-2,3-dihydroxy-propionylamino)methyl]-cyclohexanecarboxylic acid] | – | 236 to 238 |
| COC(=O)[C@H](Cc1ccccc1)NC(=O)[C@H](O)[C@@H](O)C(=O)Nc1ccc2ccccc2c1 [Example 19, methyl L-(2R,3R)-2-[2,3-dihydroxy-3-(naphthalen-2-ylcarbamoyl)-propionylamino]-3-phenyl-propionate] | 35 | – |
| COC(=O)c1ccc(CNC(=O)[C@H](O)[C@@H](O)C(=O)NCc2ccccc2)cc1 [Example 8, methyl L-(2R,3R)-4-[(3-benzylcarbamoyl-2,3-dihydroxy-propionylamino)methyl]-benzoate] | – | 205 to 206 |
| COC(=O)CCCNC(=O)[C@H](OC(C)=O)[C@@H](OC(C)=O)C(=O)Nc1ccc(Oc2ccccc2)cc1 [Example 3, methyl L-(2R,3R)-4-[2,3-diacetoxy-3-(4-phenoxy-phenylcarbamoyl)-propionylamino]-butyrate] | 39 | – |

More lines, now with the values ahead:

| inhibition at 100 µM [1] [%] | melting point [°C] | Structure (SMILES) |
| --- | --- | --- |
| 45.3 | – | COC(=O)c1ccc(CNC(=O)[C@H](O)[C@@H](O)C(=O)Nc2ccc3ccccc3c2)cc1 [Example 17, methyl L-(2R,3R)-4-{[2,3-dihydroxy-3-(naphthyl-2-carbamoyl)-propionylamino]methyl}-benzoate] |
| – | 153 to 154 | COC(=O)C1CCC(CNC(=O)[C@H](O)[C@@H](O)C(=O)NCc2ccccc2)CC1 (stereo partly drawn) [Example 11, methyl L-(2R,3R)-4-(3-benzylcarbamoyl-2,3-dihydroxy-propionylaminomethyl)-cyclohexanecarboxylate] |
| – | 142 to 145 | COC(=O)CCCNC(=O)[C@H](O)[C@@H](O)C(=O)NCc1ccccc1 [Example 13, methyl L-(2R,3R)-4-(3-benzylcarbamoyl-2,3-dihydroxy-propionylamino)-butyrate] |
| – | 177 to 178 | O=C(O)c1ccc(CNC(=O)[C@H](O)[C@@H](O)C(=O)NCc2ccccc2)cc1 [Example 12, L-(2R,3R)-4-[(3-benzylcarbamoyl-2,3-dihydroxy-propionylamino)methyl]-benzoic acid] |
| 22.5 | 169 to 170 | O=C(O)CCCNC(=O)[C@H](O)[C@@H](O)C(=O)NCc1ccccc1 [Example 14, L-(2R,3R)-4-(3-benzylcarbamoyl-2,3-dihydroxy-propionylamino)-butyric acid] |
| – | 236 to 238 | O=C(O)[C@H](Cc1ccccc1)NC(=O)[C@H](O)[C@@H](O)C(=O)NCc1ccccc1 [Example 10, L-(2R,3R)-2-(3-benzylcarbamoyl-2,3-dihydroxy-propionylamino)-3-phenyl-propionic acid] |
